Data from paper PMC9786103, “Potent and Selective Inhibition of CYP1A2 Enzyme by Obtusifolin and Its Chemopreventive Effects” (Pharmaceutics, 2022).
Like-named read-outs stand apart in the source and are kept apart here.

Legend:
[1] = target: T1, CYP2B6 (Homo sapiens, UniProt P20813); test: Bupropion 6-hydroxylation in human liver microsomes; type: biochemical; conditions: HLMs
T1 construct: Mixtures of pooled HLM, P450 substrates, and obtusifolin; tissue XenoTech XTreme 200; host or cells: pooled human liver microsomes
T1 sequence (P20813 1-491): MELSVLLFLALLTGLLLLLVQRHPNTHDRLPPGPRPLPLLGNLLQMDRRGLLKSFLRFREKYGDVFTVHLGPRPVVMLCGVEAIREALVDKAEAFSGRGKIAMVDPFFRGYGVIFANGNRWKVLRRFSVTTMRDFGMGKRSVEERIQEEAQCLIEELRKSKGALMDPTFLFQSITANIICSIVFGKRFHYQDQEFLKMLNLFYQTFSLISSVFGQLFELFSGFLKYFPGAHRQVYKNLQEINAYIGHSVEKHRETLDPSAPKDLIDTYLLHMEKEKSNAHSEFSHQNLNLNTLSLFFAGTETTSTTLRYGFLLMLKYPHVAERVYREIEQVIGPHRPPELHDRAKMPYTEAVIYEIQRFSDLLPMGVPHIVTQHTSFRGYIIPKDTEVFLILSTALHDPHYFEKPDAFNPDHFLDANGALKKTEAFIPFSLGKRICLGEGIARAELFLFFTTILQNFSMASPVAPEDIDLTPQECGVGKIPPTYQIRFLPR
Protocol: (§3) The following P450 isoform-specific substrates were used: coumarin (CYP2A6); bupropion (CYP2B6); amodiaquine (CYP2C8); tolbutamide (CYP2C9); omeprazole (CYP2C19); dextromethorphan (CYP2D6); chlorzoxazone (CYP2E1); and midazolam (CYP3A). […] NGS was introduced to start the reaction, which was followed by an additional incubation (15 min). Following reaction termination, aliquots of the supernatants were analyzed with LC-MS/MS.
(§4) Reverse phase column (Kinetex XB-C18, 100 × 2.10 mm; Phenomenex, Torrance, CA, USA) and triple-quadrupole mass spectrometer (LCMS 8060, Shimadzu, Kyoto, Japan) with an ultra high-performance LC system (Nexera X2, Shimadzu) analyze all the metabolites. […] For each metabolite, quantitation was carried out in selected reaction monitoring (SRM) mode using the following precursor-to-product ion transition: m/z 152 > 110 for acetaminophen (CYP1A2), m/z 214 > 186 for resorufin (CYP1A1 and CYP1A2), m/z 163 > 107 for 7-hydroxycoumarin (CYP2A6), m/z 256 > 238 for 6-hydroxybupropion (CYP2B6), m/z 328 > 283 for N-desethylamodiaquine (CYP2C8), m/z 287 > 89 for 5-hydroxytolbutamide (CYP2C9), m/z 362 > 214 for 4-hydroxyomeprazole (CYP2C9), m/z 258 > 157 for dextrorphan (CYP2D6), m/z 184 > 120 for 6-hydroxychlorzoxazone (CYP2E1), m/z 342 > 203 for 1′-hydroxymidazolam (CYP3A), and m/z 295 > 100 for trimipramine (IS) [23, 24].

[2] = read-out: Maximum concentration (Cmax) of obtusifolin in rat blood, cited from earlier work
[3] = target: T2, CYP1A2 (Homo sapiens, UniProt P05177); test: Kinetic characterization of inhibition of CYP1A2-mediated POD in human liver microsomes; type: biochemical; set-up: tissue XenoTech XTreme 200; host or cells: pooled human liver microsomes; conditions: HLMs; for Type of inhibition of CYP1A2-mediated POD: Lineweaver-Burk and Dixon plots
T2 sequence (P05177 1-516): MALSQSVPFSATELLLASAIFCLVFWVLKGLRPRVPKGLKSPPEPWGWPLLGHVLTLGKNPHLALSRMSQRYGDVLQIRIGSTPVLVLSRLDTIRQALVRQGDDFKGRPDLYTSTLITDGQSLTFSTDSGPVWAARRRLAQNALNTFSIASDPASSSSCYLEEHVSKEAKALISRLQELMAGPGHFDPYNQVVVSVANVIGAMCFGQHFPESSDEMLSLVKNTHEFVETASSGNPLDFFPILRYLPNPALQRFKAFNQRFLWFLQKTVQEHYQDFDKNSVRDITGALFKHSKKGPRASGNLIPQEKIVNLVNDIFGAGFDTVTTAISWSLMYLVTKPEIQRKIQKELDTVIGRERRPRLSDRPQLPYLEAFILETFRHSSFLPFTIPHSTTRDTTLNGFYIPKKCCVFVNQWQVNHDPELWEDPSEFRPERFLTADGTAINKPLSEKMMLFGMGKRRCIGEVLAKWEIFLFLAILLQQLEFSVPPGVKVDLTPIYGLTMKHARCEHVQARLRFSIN
Source text: (§1) The other conditions were similar to those used in the P450 inhibition study, as described earlier.
WinNonlin software (Pharsight, Mountain View, CA, USA) was used to calculate IC50 values. Based on Lineweaver–Burk double reciprocal plots, secondary plots of Lineweaver–Burk plots versus obtusifolin concentrations, and visual inspection of Dixon plots, the type of inhibition and apparent kinetic parameters for inhibitory activity (Ki) were estimated.

[4] = target: T3, rCYP1A2 (Homo sapiens, UniProt P05177); test: Recombinant CYP1A2 inhibition with 9-cis-retinal as substrate; type: biochemical; conditions: substrate 9-cis-retinal
T3 construct: purchased SPMED (Busan, Republic of Korea)
T3 sequence (P05177 1-516): T2 sequence (P05177 1-516)
Source text: Table 5 Inhibitory effects (IC50) of obtusifolin against recombinant CYP1A1 and CYP1A2. | column: IC50 (μM)

[5] = target: T4, CYP2C19 (Homo sapiens, UniProt P33261); test: Omeprazole 4-hydroxylation in human liver microsomes; type: biochemical; conditions: HLMs
T4 construct: Mixtures of pooled HLM, P450 substrates, and obtusifolin; tissue XenoTech XTreme 200; host or cells: pooled human liver microsomes
Protocol: as §3, §4

[6] = target: T5, rCYP1A1 (Homo sapiens, UniProt P04798); test: Ethoxyresorufin O-deethylation (EROD) in recombinant CYP1A1; type: biochemical; conditions: rCYP1A1 10 pmol/mL, 7-ethoxyresorufin 2 µM, 20 min; read-out: IC50, CYP1A1-mediated EROD
T5 construct: purchased SPMED (Busan, Republic of Korea)
T5 sequence (P04798 1-512): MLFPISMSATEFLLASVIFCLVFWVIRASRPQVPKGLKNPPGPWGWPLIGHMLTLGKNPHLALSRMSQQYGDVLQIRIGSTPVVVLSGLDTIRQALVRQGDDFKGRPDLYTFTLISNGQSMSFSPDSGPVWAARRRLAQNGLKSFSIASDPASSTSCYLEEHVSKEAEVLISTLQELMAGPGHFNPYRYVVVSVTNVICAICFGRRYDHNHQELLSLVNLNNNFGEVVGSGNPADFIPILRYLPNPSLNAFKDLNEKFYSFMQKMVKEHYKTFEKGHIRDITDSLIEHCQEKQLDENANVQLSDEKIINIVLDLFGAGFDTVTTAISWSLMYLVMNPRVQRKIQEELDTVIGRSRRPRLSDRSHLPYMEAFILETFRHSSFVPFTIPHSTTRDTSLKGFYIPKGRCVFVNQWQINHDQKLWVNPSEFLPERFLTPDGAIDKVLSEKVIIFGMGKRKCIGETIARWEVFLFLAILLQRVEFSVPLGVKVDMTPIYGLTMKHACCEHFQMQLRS
Protocol: (§2) The inhibitory effects of obtusifolin on the CYP1A-mediated ethoxyresorufin O-deethylation (EROD) activity of rCYP1A1 and rCYP1A2 enzymes (10 pmol/mL) were investigated. […] The other conditions, except for the incubation time (20 min), were similar to those used in the P450 inhibition study, as described earlier.

[7] = tested on: CYP1A1 and CYP1A2; test: CYP1A1- and CYP1A2-mediated POD and EROD with recombinant enzymes (summary); type: biochemical; conditions: human, summary bound
Protocol: as §1, §2

[8] = target: CYP3A (Homo sapiens, UniProt P08684); test: Midazolam 1'-hydroxylation in human liver microsomes; type: biochemical; conditions: pooled human liver microsomes, probe midazolam, HLMs
Protocol: as §3, §4

[9] = target: T6, CYP2C9 (Homo sapiens, UniProt P11712); test: Tolbutamide 4-hydroxylation in human liver microsomes; type: biochemical; conditions: HLMs
T6 construct: Mixtures of pooled HLM, P450 substrates, and obtusifolin; tissue XenoTech XTreme 200; host or cells: pooled human liver microsomes
Protocol: as §3, §4

[10] = tested on: other P450s; test: Inhibition of other P450s in human liver microsomes (summary); type: biochemical; conditions: HLMs, P450s other than CYP1A2; read-out: IC50 against other P450s
Source text: The inhibitory potential of obtusifolin against the biotransformation of eight P450 probe substrates was examined using previously reported methods with slight changes [21, 22]. The following P450 isoform-specific substrates were used: coumarin (CYP2A6); bupropion (CYP2B6); amodiaquine (CYP2C8); tolbutamide (CYP2C9); omeprazole (CYP2C19); dextromethorphan (CYP2D6); chlorzoxazone (CYP2E1); and midazolam (CYP3A). Mixtures of pooled HLM, P450 substrates, and obtusifolin (0, 0.05, 0.2, 0.5, 2, 5, or 10 µM for CYP1A2; and 0, 0.5, 2, 5, 20, or 50 µM for the other P450 isoforms) were pre-incubated (5 min, 37 °C). NGS was introduced to start the reaction, which was followed by an additional incubation (15 min). Following reaction termination, aliquots of the supernatants were analyzed with LC-MS/MS.

T6 sequence (P11712 whole entry): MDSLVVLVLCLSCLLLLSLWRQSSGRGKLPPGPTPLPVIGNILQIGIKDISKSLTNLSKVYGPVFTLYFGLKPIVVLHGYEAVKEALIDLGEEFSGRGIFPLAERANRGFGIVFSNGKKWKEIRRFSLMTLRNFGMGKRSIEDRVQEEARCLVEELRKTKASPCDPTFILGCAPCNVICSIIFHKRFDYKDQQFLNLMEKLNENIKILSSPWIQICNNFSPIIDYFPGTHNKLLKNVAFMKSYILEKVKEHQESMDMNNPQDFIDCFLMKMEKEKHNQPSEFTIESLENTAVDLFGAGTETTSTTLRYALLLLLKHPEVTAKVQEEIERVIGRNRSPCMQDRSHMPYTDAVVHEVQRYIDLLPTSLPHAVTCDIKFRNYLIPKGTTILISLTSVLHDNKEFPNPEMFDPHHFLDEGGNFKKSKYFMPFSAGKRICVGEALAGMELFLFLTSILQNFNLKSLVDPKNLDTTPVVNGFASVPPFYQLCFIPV
T4 sequence (P33261 whole entry): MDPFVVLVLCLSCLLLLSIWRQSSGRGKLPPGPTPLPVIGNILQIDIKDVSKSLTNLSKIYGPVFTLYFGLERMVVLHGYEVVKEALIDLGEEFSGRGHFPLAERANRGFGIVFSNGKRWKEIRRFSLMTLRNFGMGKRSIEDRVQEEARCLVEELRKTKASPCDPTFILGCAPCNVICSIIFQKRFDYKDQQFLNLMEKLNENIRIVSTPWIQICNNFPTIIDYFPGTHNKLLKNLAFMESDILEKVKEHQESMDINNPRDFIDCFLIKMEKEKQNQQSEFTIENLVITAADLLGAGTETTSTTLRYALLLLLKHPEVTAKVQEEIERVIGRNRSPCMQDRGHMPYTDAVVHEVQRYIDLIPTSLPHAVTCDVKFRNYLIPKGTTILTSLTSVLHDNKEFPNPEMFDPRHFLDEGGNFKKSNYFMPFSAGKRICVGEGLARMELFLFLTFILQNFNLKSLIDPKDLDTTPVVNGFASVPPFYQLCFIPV
Chain of CYP3A (P08684 2-503): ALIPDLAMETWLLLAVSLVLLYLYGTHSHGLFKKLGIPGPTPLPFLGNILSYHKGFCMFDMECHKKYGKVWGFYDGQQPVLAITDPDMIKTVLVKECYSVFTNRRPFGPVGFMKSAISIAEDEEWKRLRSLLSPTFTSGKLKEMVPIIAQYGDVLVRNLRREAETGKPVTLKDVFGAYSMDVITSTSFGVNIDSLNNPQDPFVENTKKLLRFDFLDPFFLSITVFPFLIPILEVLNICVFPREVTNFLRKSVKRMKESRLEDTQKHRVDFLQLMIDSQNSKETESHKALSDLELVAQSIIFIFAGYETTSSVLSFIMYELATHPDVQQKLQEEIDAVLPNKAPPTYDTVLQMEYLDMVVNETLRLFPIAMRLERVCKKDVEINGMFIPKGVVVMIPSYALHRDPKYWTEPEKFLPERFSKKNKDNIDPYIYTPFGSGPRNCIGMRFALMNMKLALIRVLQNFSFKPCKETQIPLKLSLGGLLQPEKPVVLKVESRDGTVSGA

Structure (SMILES): COc1c(O)c(C)cc2c1C(=O)c1c(O)cccc1C2=O [Obtusifolin, obtusifolin]
- IC50 [1]: > 50 µM
- Cmax ([2]; single oral Semen Cassiae extracts 1.25 g/kg (5.01 mg/g obtusifolin)): 860 nM
- Cmax ([2]; single oral obtusifolin 1.3 mg/kg): 540 nM
- Ki ([3]; phenacetin 20, 50, 100 µM, read-out: Ki, CYP1A2-mediated phenacetin O-deethylation): 0.11 ± 0.02 µM
- Type of inhibition of CYP1A2-mediated POD [3]: competitive
- Type of inhibition of CYP1A2-mediated POD ([3]; listed as obtusifolin): competitive inhibition
- IC50 [4]: 0.15 ± 0.03 µM
- IC50 [5]: > 50 µM
- IC50 [6]: 0.39 ± 0.06 µM
- IC50 [7]: < 0.57 µM
- IC50 at 15 min [8]: > 50 µM
- IC50 [9]: 28.6 µM
- IC50 [10]: > 28.6 µM
